Data taken from PMC7567791 (Scientific Reports, 2020).

Target: T1, μ-OR (Homo sapiens, UniProt P35372)
T1 construct: expressed in transfected cells; host or cells: HEK293A parental, ΔGRK2, ΔGRK3, ΔGRK2/3 (and Δβ-arrestin1/2) cells
Type: cell-based

T1 sequence (P35372 whole entry): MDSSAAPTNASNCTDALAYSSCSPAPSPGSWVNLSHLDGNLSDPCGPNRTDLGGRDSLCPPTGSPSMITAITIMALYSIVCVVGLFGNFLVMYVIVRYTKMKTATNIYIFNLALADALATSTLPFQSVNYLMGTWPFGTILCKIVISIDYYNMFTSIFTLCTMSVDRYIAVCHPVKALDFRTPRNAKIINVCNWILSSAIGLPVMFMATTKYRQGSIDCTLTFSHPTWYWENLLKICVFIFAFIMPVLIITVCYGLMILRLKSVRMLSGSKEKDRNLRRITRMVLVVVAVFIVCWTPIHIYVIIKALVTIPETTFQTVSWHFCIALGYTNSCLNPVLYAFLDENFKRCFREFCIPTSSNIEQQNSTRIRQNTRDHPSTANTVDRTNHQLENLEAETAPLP

C[C@@H](NC(=O)[C@@H](N)Cc1ccc(O)cc1)C(=O)NCC(=O)N(C)[C@@H](Cc1ccccc1)C(=O)NCCO [DAMGO, D-Ala(2)-mephe(4)-gly-ol(5))enkephalin]
time of peak in β-arrestin2 recruitment to μ-OR-EYFP: 6 min
